From the Kinase Knowledgebase extract (Sharma et al. 2016)
“And” between values parts separate entries of the source, which are not always exact repeats. Identical values can stand only once.

Key:
MAPK14 (human) [1] = target: MAPK14 (human) (UniProt Q16539); experiment: Inhibition of MAPK14 Kinase Activity by EGFRP Assay
MAPK14 (human) [2] = target: MAPK14 (human) (UniProt Q16539); experiment: Inhibition of LPS Stimulated TNF Production by U937 Cells; conditions: for inhibition: concentration not given here
MAPK14 (human) [3] = target: MAPK14 (human) (UniProt Q16539); experiment: Inhibition of MAPK14 Kinase Activity by PHAS-I Assay; conditions: for inhibition: concentration not given here

Sequence of MAPK14 (human) (Q16539 whole entry, looked up): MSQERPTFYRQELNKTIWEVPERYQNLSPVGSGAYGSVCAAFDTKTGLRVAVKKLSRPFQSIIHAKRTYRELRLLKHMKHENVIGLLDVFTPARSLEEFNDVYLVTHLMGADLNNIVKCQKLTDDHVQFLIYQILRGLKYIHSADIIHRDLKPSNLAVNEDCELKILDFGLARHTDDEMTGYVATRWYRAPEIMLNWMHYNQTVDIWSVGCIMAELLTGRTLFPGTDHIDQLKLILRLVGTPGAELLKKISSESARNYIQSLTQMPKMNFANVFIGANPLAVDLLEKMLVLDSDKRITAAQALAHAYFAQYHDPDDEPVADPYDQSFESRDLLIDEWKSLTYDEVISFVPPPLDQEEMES

Row | Structure (SMILES) | inhibition (MAPK14 (human) [2]) [%] | inhibition (MAPK14 (human) [3]) [%] | further results
1 | Cc1cc(-c2cn(C)nc2-c2cccc(Cl)c2)ccn1.Cc1cc(-c2cnn(C)c2-c2cccc(Cl)c2)ccn1 | – | – | IC50 (MAPK14 (human) [1]): 44 nM
2 | Fc1ccc(-c2n[nH]cc2-c2ccnc(NCCn3ccnc3)c2)cc1 | – | – | IC50 (MAPK14 (human) [1]): < 10 nM; IC50 (MAPK14 (human) [2]): 7.4 nM
3 | Cn1cc(-c2ccncc2)c(-c2cccc(Cl)c2)n1.Cn1ncc(-c2ccncc2)c1-c1cccc(Cl)c1 | – | – | IC50 (MAPK14 (human) [1]): 103 nM
4 | CC(C)c1ccc(NC(=O)NCCc2[nH]nc(-c3ccc(F)cc3)c2-c2ccncc2)cc1 | 5 | 50 | –
5 | CCc1ccccc1NC(=O)NCCc1[nH]nc(-c2ccc(F)cc2)c1-c1ccncc1 | 22 | 79 | –
6 | O=C(NCCc1[nH]nc(-c2ccc(F)cc2)c1-c1ccncc1)Nc1cc(Cl)ccc1Cl | 39 | 61 | –
7 | N#Cc1ccc(S(=O)(=O)NCCCc2[nH]nc(-c3ccc(F)cc3)c2-c2ccncc2)cc1 | 75 | – | IC50 (MAPK14 (human) [3]): < 100 nM
8 | COc1cc(NC(=O)NCCc2[nH]nc(-c3ccc(F)cc3)c2-c2ccncc2)cc(OC)c1OC | 23 | 56 | –
9 | O=C(NCCc1[nH]nc(-c2ccc(F)cc2)c1-c1ccncc1)Nc1cccc(Cl)c1Cl | 31 | 68 | –
10 | O=S(=O)(NCc1[nH]nc(-c2ccc(F)cc2)c1-c1ccncc1)c1cc2nnoc2c2ccccc12 | 32 | 50 | –
11 | Cc1ccc(S(=O)(=O)N[C@@H](Cc2ccccc2)C(=O)NCCc2[nH]nc(-c3ccc(F)cc3)c2-c2ccncc2)cc1 | 17 | 72 | –
12 | C[C@H](NS(=O)(=O)c1ccccc1C#N)c1[nH]nc(-c2ccc(F)cc2)c1-c1ccncc1 | 69 | – | IC50 (MAPK14 (human) [3]): 250 nM
13 | CCCCCc1cccc(C(C)NC(=O)Cn2nc(-c3ccc(F)cc3)c(-c3ccncc3)c2C)c1 (stereo unspecified) | 25 | 65 | –
14 | O=C(NCCc1[nH]nc(-c2ccc(F)cc2)c1-c1ccncc1)c1cccnc1 | 23 | 58 | –
15 | COc1cccc(C(=O)NCCCc2[nH]nc(-c3ccc(F)cc3)c2-c2ccncc2)c1 | – | 71 | IC50 (MAPK14 (human) [2]): 790 nM
16 | O=C(NCCc1[nH]nc(-c2ccc(F)cc2)c1-c1ccncc1)Nc1ccc(OC(F)(F)F)cc1 | 4 | 48 | –
17 | Cc1c(-c2ccncc2)c(-c2ccc(F)cc2)nn1CC(=O)Nc1ccc(S(=O)(=O)C(F)F)cc1 | 28 | 90 | –
18 | O=C(NCCc1[nH]nc(-c2ccc(F)cc2)c1-c1ccncc1)c1ccccc1I | 23 | 65 | –
19 | O=S(=O)(/C=C/c1ccccc1)NCCc1[nH]nc(-c2ccc(F)cc2)c1-c1ccncc1 | 10 | 58 | –
20 | Cc1cccc(-c2c(-c3ccnc(C)c3)cnn2C)c1 | – | – | IC50 (MAPK14 (human) [1]): 104 nM
21 | O=C(NCCc1[nH]nc(-c2ccc(F)cc2)c1-c1ccncc1)c1ccno1 | 45 | 77 | –
22 | CCN(CC)C(=O)NCc1[nH]nc(-c2ccc(F)cc2)c1-c1ccncc1 | 40 | – | IC50 (MAPK14 (human) [3]): 130 nM
23 | CN(C)C(=O)NCCc1[nH]nc(-c2ccc(F)cc2)c1-c1ccncc1 | 52 | 75 | –
24 | Cc1c(-c2ccncc2)c(-c2ccc(F)cc2)nn1CC(=O)N(CC(C)C)CC(C)C | – | 55 | IC50 (MAPK14 (human) [2]): > 10000 nM

Row | Structure (SMILES) | inhibition (MAPK14 (human) [2]) [%] | inhibition (MAPK14 (human) [3]) [%] | further results
25 | CCOC(=O)NC(=O)NCCc1[nH]nc(-c2ccc(F)cc2)c1-c1ccncc1 | 22 | 56 | –
26 | CCN(Cc1ccncc1)C(=O)Cn1nc(-c2ccc(F)cc2)c(-c2ccncc2)c1C | 2 | 68 | –
27 | C[C@@H](NS(=O)(=O)c1cc(Cl)cc(Cl)c1O)c1[nH]nc(-c2ccc(F)cc2)c1-c1ccncc1 | 71 | – | IC50 (MAPK14 (human) [3]): 1110 nM
28 | Cn1cc(-c2ccncc2)c(-c2ccc(F)cc2)n1 | – | – | IC50 (MAPK14 (human) [2]): 96.7 nM and 130 nM; IC50 (MAPK14 (human) [3]): 700 nM
29 | COc1ccc(OC)c(NC(=O)NCc2[nH]nc(-c3ccc(F)cc3)c2-c2ccncc2)c1 | 40 | 39 | –
30 | Cc1c(-c2ccncc2)c(-c2ccc(F)cc2)nn1CC(=O)N1CCCCC1C[C@@H]1CCCN1C (stereo partly specified) | 24 | 42 | –
31 | COc1ccc(CC(=O)NCCc2[nH]nc(-c3ccc(F)cc3)c2-c2ccncc2)cc1 | 42 | 55 | –
32 | O=C(NCCc1[nH]nc(-c2ccc(F)cc2)c1-c1ccncc1)c1ccccc1 | 29 | 74 | –
33 | Cc1ccc([C@@H](C)NC(=O)Cn2nc(-c3ccc(F)cc3)c(-c3ccncc3)c2C)cc1 | 45 | 81 | –
34 | CC1(C)[C@@H]2CC[C@]1(CS(=O)(=O)NCCc1[nH]nc(-c3ccc(F)cc3)c1-c1ccncc1)C(=O)C2 | 44 | – | IC50 (MAPK14 (human) [3]): 160 nM
35 | Cc1[nH]nc(-c2ccc3c(c2)CCCO3)c1-c1ccncc1 | – | – | IC50 (MAPK14 (human) [2]): 208 nM; IC50 (MAPK14 (human) [3]): 800 nM
36 | CCOC(=O)c1cccc(NC(=O)NCCc2[nH]nc(-c3ccc(F)cc3)c2-c2ccncc2)c1 | 2 | 82 | –
37 | Cc1c(-c2ccncc2)c(-c2ccc(F)cc2)nn1CC(=O)N1CCC[C@H]1CN1CCCC1 | 10 | 49 | –
38 | CC(=O)OC(C)(C)C(=O)NCCc1[nH]nc(-c2ccc(F)cc2)c1-c1ccncc1 | 71 | 70 | –
39 | O=S(=O)(NCCc1[nH]nc(-c2ccc(F)cc2)c1-c1ccncc1)c1ccccc1 | 20 | 88 | –
40 | O=C(NCCc1[nH]nc(-c2ccc(F)cc2)c1-c1ccncc1)[C@H]1CCCN1 | 63 | 89 | –
41 | CCN(CC)C(=O)Cn1nc(-c2ccc(F)cc2)c(-c2ccncc2)c1C | 36 | 54 | –
42 | COc1cccc(CC(=O)NCCc2[nH]nc(-c3ccc(F)cc3)c2-c2ccncc2)c1 | 31 | 63 | –
43 | O=C(NCc1[nH]nc(-c2ccc(F)cc2)c1-c1ccncc1)c1ccc(OC(F)(F)F)cc1 | 45 | 69 | –
44 | O=S(=O)(/C=C/c1ccccc1)NCCCc1[nH]nc(-c2ccc(F)cc2)c1-c1ccncc1 | 65 | 69 | –
45 | O=S(=O)(NCCCc1[nH]nc(-c2ccc(F)cc2)c1-c1ccncc1)c1ccc(F)cc1 | 62 | 78 | –
46 | COC(=O)[C@H](CSCc1ccccc1)NC(=O)Cn1nc(-c2ccc(F)cc2)c(-c2ccncc2)c1C | – | 84 | IC50 (MAPK14 (human) [2]): > 10000 nM
47 | CC1(C)[C@H]2CC[C@@]1(CS(=O)(=O)NCCc1[nH]nc(-c3ccc(F)cc3)c1-c1ccncc1)C(=O)C2 | 26 | – | IC50 (MAPK14 (human) [3]): < 100 nM
48 | CC(C)=CC(=O)NCCc1[nH]nc(-c2ccc(F)cc2)c1-c1ccncc1 | 25 | 67 | –

Row | Structure (SMILES) | inhibition (MAPK14 (human) [2]) [%] | inhibition (MAPK14 (human) [3]) [%] | further results
49 | CC[C@H](C)NC(=O)Cn1nc(-c2ccc(F)cc2)c(-c2ccncc2)c1C | 38 | 76 | –
50 | O=C(NCCCc1[nH]nc(-c2ccc(F)cc2)c1-c1ccncc1)[C@@H]1CCCN1 | – | 85 | IC100 (MAPK14 (human) [2]): 0.36 µM
51 | Cc1c(-c2ccncc2)c(-c2ccc(F)cc2)nn1CC(=O)NC1CCCC1 | 36 | 58 | –
52 | O=S(=O)(NCc1[nH]nc(-c2ccc(F)cc2)c1-c1ccncc1)c1ccc(OC(F)(F)F)cc1 | – | 42 | IC50 (MAPK14 (human) [2]): 3630 nM
53 | O=C(NCCc1[nH]nc(-c2ccc(F)cc2)c1-c1ccncc1)Nc1ccc(C(F)(F)F)cc1 | 20 | 82 | –
54 | O=C(CCC1CC=CC1)NCc1[nH]nc(-c2ccc(F)cc2)c1-c1ccncc1 | 84 | 71 | –
55 | O=S(=O)(NCCc1[nH]nc(-c2ccc(F)cc2)c1-c1ccncc1)c1ccc(Cl)c(Cl)c1 | 36 | – | IC50 (MAPK14 (human) [3]): 330 nM
56 | O=C(NCc1[nH]nc(-c2ccc(F)cc2)c1-c1ccncc1)Nc1ccc(I)cc1 | 35 | 27 | –
57 | O=S(=O)(NCCc1[nH]nc(-c2ccc(F)cc2)c1-c1ccncc1)c1ccc(F)cc1F | 34 | 88 | –
58 | O=C(NCCc1[nH]nc(-c2ccc(F)cc2)c1-c1ccncc1)c1cccc(Br)c1 | 26 | 0 | –
59 | C[C@H](NC(=O)NCCc1[nH]nc(-c2ccc(F)cc2)c1-c1ccncc1)c1ccccc1 | 12 | 79 | –
60 | O=C(NCCCc1[nH]nc(-c2ccc(F)cc2)c1-c1ccncc1)C1CCCC1 | 66 | 79 | –
61 | CCCS(=O)(=O)NCCc1[nH]nc(-c2ccc(F)cc2)c1-c1ccncc1 | 35 | 82 | –
62 | CN1CCN(CCCNC(=O)NCCCc2[nH]nc(-c3ccc(F)cc3)c2-c2ccncc2)CC1 | – | – | IC50 (MAPK14 (human) [2]): > 1000 nM; IC50 (MAPK14 (human) [3]): 91 nM
63 | Cc1c(-c2ccncc2)c(-c2ccc(F)cc2)nn1CC(=O)N(CC1CC1)C(C)Cc1ccc(Cl)cc1 (stereo unspecified) | 22 | 83 | –
64 | CCC(=O)C(=O)CNC(=O)NCc1[nH]nc(-c2ccc(F)cc2)c1-c1ccncc1 | – | 51 | IC50 (MAPK14 (human) [2]): > 1000 nM
65 | C=Cc1ccc(S(=O)(=O)NCc2[nH]nc(-c3ccc(F)cc3)c2-c2ccncc2)cc1 | 9 | 67 | –
66 | O=S(=O)(NCCc1[nH]nc(-c2ccc(F)cc2)c1-c1ccncc1)c1ccccc1F | 36 | 87 | –
67 | CCOC(=O)C(CC(C)C)NC(=O)C(=O)NCCc1[nH]nc(-c2ccc(F)cc2)c1-c1ccncc1 (stereo unspecified) | 26 | 60 | –
68 | COc1ccc(Br)cc1S(=O)(=O)N[C@H](C)c1[nH]nc(-c2ccc(F)cc2)c1-c1ccncc1 | 86 | – | IC50 (MAPK14 (human) [3]): 24 nM
69 | O=S(=O)(NCCCc1[nH]nc(-c2ccc(F)cc2)c1-c1ccncc1)c1ccc(F)cc1F | 60 | 52 | –
70 | COc1ccccc1C(=O)NCCc1[nH]nc(-c2ccc(F)cc2)c1-c1ccncc1 | 14 | 53 | –
71 | CC(Oc1ccccc1)C(=O)NCCc1[nH]nc(-c2ccc(F)cc2)c1-c1ccncc1 (stereo unspecified) | 55 | 80 | –
72 | CC(C)c1ccccc1NC(=O)NCCc1[nH]nc(-c2ccc(F)cc2)c1-c1ccncc1 | 29 | 80 | –
